Laboratory results: patent US9278982B2, “Targeting human thymidylate kinase induces DNA repair toxicity in malignant tumor cells” (NATIONAL YANG-MING UNIVERSITY, priority 2010, dated 2016)

Tests used:
[1] = biological target: T1, purified human thymidylate kinase (Homo sapiens, UniProt P23919); experiment: NADH-coupled TMPK assay (kinetic parameters); type: biochemical; details: for Ki: 10 min pre-incubation, average of three YMU1 concentrations
T1 construct: GST (N, cleaved yes); made in house; host or cells: E. coli JM109 (pGEX-2T-hTMPK)
T1 sequence (P23919 1-212): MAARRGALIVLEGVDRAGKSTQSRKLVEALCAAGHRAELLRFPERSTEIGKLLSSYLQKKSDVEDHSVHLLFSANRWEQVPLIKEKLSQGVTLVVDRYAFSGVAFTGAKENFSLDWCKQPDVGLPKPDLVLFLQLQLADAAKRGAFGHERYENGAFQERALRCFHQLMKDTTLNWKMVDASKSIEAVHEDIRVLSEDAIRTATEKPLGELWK
Method: The inhibitory mode of YMU1 was determined by pre-incubating different concentrations of YMU1 with purified hTMPK protein and measuring initial velocity using the conventional TMPK assay.
All reactions were performed in 96-well plates in an assay volume of 100 μl. The activity of hTMPK was measured at 25° C. using a modified NADH coupled colorimetric assay as described (Agarwal et al., 1978; Miyata et al., 2003; Ostermann et al., 2003), in which purified hTMPK was added to the buffer containing 100 mM Tris-HCl, pH 7.5, 100 mM KCl, 10 mM MgCl2, 0.5 mM phosphoenol pyruvate, 0.25 mM NADH, 5 units of lactate dehydrogenase, 4 units of pyruvate kinase, 1 mM ATP, and 200 μM dTMP. The change of NADH was measured by reading the absorbance at 340 nm. One unit of TMPK activity is defined as the conversion of 1 μmole of TMP to TDP per minute.

In vivo toxicity of YMU1 = experiment: In vivo toxicity of YMU1; design: species or system Balb/c mice
[2] = tested on: various cancer cell lines; experiment: Colony formation assay after YMU1 and doxorubicin; type: cell-based, human; details: YMU1 72 h, doxorubicin 0.1 μM 4 h, 14 days of culture
Method: FIG. 16. In vitro and in vivo effect of YMU1 on doxorubicin sensitization. (A) A panel of cell lines were pre-treated with vehicle, YMU1 (compound 21), D6 (ethyl 4-(2-chloroacetyl)piperazine-1-carboxylate) or D7 (compound 28) for 3 days and were exposed to different concentration of doxorubicin for 4 h. […] The enhancement (fold) of doxorubicin sensitivity in each cell line was calculated. Data represent mean±s.d., n=3; each experiment was quadruplex. Inset indicates the IC50 value of doxorubicin in various cell lines. […] Following overnight culture, cells were refreshed with growth medium. After 14 days of culture, colonies were fixed, stained by crystal violet and counted. (C) HCT-116 p53^−/− cells were subcutaneously implanted in the right flank of Balb/c nude mice (each experimental group n=8). Arrow indicated the time of stopping drug treatment. The tumor volume was estimated as described in Methods of the Invention section. (D) After 2 weeks recovered from treatment, mice were sacrificed for tumor weight measurement. Data represent mean±s.e.m; **, P<0.01 by a two-tailed Student's t-test. (E) Ki 67 proliferation marker staining of tumor shown in left panel. Scale bar, 50 μm. (F) Model of doxorubicin sensitization by YMU1 in malignant cancer cells. […]

dUTPase = biological target: T2, dUTPase (Homo sapiens, UniProt P33316); experiment: dUTPase activity assay; type: biochemical; details: 0.1 μg purified GST-dUTPase, 10 min incubation with YMU1
T2 construct: made in house; host or cells: E. coli JM109 (pGEX-2T-dUTPase (WT))
Method: FIG. 19. No effect of YMU1 on dUTPase activity. 0.1 μg of purified GST-dUTPase protein was incubated with the indicated concentration of YMU1 for 10 min prior to action using dUTPase activity analysis.
For detecting dUTPase activity, the EnzChek Pyrophosphate Assay kit (Invitrogen) was used for measuring the dUTPase activity following the manufacturer's instruction. […] Reaction mixtures were incubated at 37° C. for 3 minutes. Samples (15 μl each) were added to the reaction mixtures [715 μl dH2O, 50 μl 20× reaction buffer, 200 μl MESG substrate, 1 U purine nucleoside phosphorylase, 0.03 U inorganic pyrophosphatase] and incubated at 22° C. for 45 minutes. The absorbance at 360 nm was measured using an ELISA plate reader.

HCT-116 p53−/− cells = experiment: Whole-cell dTTP extraction and quantification; type: cell-based, human
Method: FIG. 13. Effect of YMU1 on cellular dTTP level. HCT-116 p53−/− cells were transfected with or without TMPK siRNA for 2 days and treated with vehicle or YMU1. After 72 h, cells were harvested for Western blot analysis and dNTP level determination (mean±s.d., n=3; **, P<0.01 based on a two-tailed Student's t-test).
The investigators performed additional experiments to determine the effect of YMU1 treatment on cellular dTTP levels. YMU1 treatment in cells reduced dTTP pool about 30-40% after treatment with YMU1 for 3 days (FIG. 13). Transfection of these cells with siRNA to knock-down TMPK expression reduced the dTTP pool size in a similar magnitude.
10^6 cells were extracted with 1 ml of ice-cold 60% methanol at −20° C. overnight, followed by centrifugation for 30 min at 16,000×g. The supernatant was immersed at 100° C. in dry bath for 3 min and dried under vacuum. The dry residue was dissolved in 80 μl of nuclease free water and used for cellular dNTP measurement according to the method described by Ferraro et al. (Ferraro et al., 2010).

T2 sequence (P33316 1-164 isoform P33316-2): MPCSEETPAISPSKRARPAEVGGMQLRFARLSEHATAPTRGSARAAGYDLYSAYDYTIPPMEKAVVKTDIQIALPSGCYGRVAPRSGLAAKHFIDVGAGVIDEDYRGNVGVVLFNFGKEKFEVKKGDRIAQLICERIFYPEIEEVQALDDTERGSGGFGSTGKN

Compound: CCOC(=O)N1CCN(C(=O)Cn2sc3nc(C)cc(C)c3c2=O)CC1 [compound 21, Ethyl 4-(2-(4,6-dimethyl-3-oxoisothiazolo[5,4-b]pyridin-2(3H)-yl)acetyl) piperazine-1-carboxylate]
- Ki ([1]; ATP 1 mM, TMP varied 2~200 μM): 220 ± 30 nM
- Vmax ([1]; ATP varied, YMU1 0.25 μM): 212.0 ± 10.3 nmol/min/mg
- Vmax ([1]; ATP varied, YMU1 0.5 μM): 94.8 ± 6.9 nmol/min/mg
- Vmax ([1]; ATP varied, YMU1 1 μM): 55.7 ± 1.3 nmol/min/mg
- Ki ([1]; TMP 200 μM, ATP varied 5~1000 μM): 180 ± 60 nM
- Vmax ([1]; TMP varied, YMU1 0.125 μM): 258.9 ± 12.4 nmol/min/mg
- Vmax ([1]; TMP varied, YMU1 0.25 μM): 180.6 ± 11.8 nmol/min/mg
- Vmax ([1]; TMP varied, YMU1 0.5 μM): 91.8 ± 6.4 nmol/min/mg
- Body weight (In vivo toxicity of YMU1; Pre-treat, n = 4, Mean ± SEM): 19.93 ± 1.63 g
- Clinical observations (In vivo toxicity of YMU1; Treatment group n = 4, YMU1 4 weeks): Nil
- Body weight (In vivo toxicity of YMU1; Week -2, n = 4, Mean ± SEM): 20.88 ± 1.07 g
- Body weight (In vivo toxicity of YMU1; Week-1, n = 4, Mean ± SEM): 20.48 ± 1.43 g
- Body weight (In vivo toxicity of YMU1; Week-3, n = 4, Mean ± SEM): 21.25 ± 1.13 g
- Body weight (In vivo toxicity of YMU1; Week-4, n = 4, Mean ± SEM): 21.30 ± 0.96 g
- mouse body weight (In vivo toxicity of YMU1; YMU1 4 weeks, 2-fold higher dose regimen than in the tumor xenograft study): did not alter mouse body weight
- toxic effect in normal mice (In vivo toxicity of YMU1; YMU1 on its own, 4 weeks): produces no toxic effect
- Blood Chemistry, Alanine Aminotransferase (In vivo toxicity of YMU1; n = 4, Mean ± SEM): 32.00 ± 2.45 U/L
- Blood Chemistry, Alkaline Phosphatase (In vivo toxicity of YMU1; n = 4, Mean ± SEM): 389.25 ± 20.79 U/L
- Blood Chemistry, Aspartate Aminotransferase (In vivo toxicity of YMU1; n = 4, Mean ± SEM): 62.50 ± 5.26 U/L
- Blood Chemistry, Blood Urea Nitrogen (In vivo toxicity of YMU1; n = 4, Mean ± SEM): 19.08 ± 3.25 mg/dL
- Blood Chemistry, Creatinine (In vivo toxicity of YMU1; n = 4, Mean ± SEM): 0.10 ± 0.00 mg/dL
- Blood Chemistry, Total protein (In vivo toxicity of YMU1; n = 4, Mean ± SEM): 5.48 ± 0.25 g/dL
- Hematology, Hb (In vivo toxicity of YMU1; n = 4, Mean ± SEM): 16.25 ± 0.41 g/dl
- Hematology, PCV (In vivo toxicity of YMU1; n = 4, Mean ± SEM): 53.48 ± 2.50%
- Blood Chemistry, Glucose (In vivo toxicity of YMU1; n = 4, Mean ± SEM, *P < 0.05): 136.25 ± 14.31* mg/dl
- lethal effects of doxorubicin (colony assay) [2]: markedly enhanced the lethal effects of doxorubicin
- inhibition of dUTPase (dUTPase): unable to inhibit dUTPase
- further reduction of dTTP pool in TMPK knockdown cells (HCT-116 p53−/− cells; cells transfected with TMPK siRNA, then YMU1): did not cause a further reduction
- reduction of dTTP pool (HCT-116 p53−/− cells; treatment with YMU1 for 3 days): 30-40%
